Measured values as given in patent publication US20090099029A1, “Methods and substrates for conducting assays” (Invitrogen Corporation, priority 2005, published 2009).

What was measured:
Experiment in all cases: Further analysis of a plurality of inhibitors and a plurality of kinases (Table 5 inhibition results)
Assay type in all cases: biochemical
Design in all cases: scale not given here
[1] = biological target: kinases of Table 5 (Homo sapiens, UniProt P11362); conditions: inhibitor 100 uM; for Inhibition level: kinase FGFR1; for Inhibition Results (Level): kinase FGFR1 (Part II, plate D12, Domain 1)
From the text: (§1) The wash solution is then discarded.

[2] = biological target: kinases of Table 5 (Homo sapiens, UniProt P00519); conditions: for Inhibition level: kinase ABL1; for Inhibition Results (Level): kinase ABL1 (Part II, plate B6, Domain 1)
From the text: as §1

[3] = biological target: T1, kinases of Table 5 (Homo sapiens, UniProt Q9Y616); conditions: kinase IRAK3 (Part I, plate C9, Domain 1); inhibitor 100 uM
T1 sequence (Q9Y616 1-596): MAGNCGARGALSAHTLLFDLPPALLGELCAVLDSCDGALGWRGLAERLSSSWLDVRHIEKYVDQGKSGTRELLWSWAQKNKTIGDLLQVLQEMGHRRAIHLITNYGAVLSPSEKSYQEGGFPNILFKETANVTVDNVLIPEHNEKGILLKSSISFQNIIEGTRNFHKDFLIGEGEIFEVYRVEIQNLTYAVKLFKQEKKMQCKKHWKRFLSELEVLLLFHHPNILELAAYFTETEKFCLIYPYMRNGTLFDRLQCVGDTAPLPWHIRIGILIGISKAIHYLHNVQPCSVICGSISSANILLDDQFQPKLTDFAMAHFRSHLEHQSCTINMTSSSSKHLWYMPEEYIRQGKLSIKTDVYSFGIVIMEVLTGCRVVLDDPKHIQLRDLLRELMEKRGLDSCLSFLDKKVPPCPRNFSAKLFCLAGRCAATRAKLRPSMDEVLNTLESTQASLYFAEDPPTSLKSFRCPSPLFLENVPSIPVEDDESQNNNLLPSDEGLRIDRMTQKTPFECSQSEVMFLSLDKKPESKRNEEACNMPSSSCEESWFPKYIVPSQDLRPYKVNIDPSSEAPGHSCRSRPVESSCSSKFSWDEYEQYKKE
From the text: as §1

[4] = biological target: kinases of Table 5 (Homo sapiens, UniProt Q9Y6R4); conditions: kinase MAP3K4 (Part I, plate E7, Domain 1); inhibitor 100 uM
From the text: as §1

[5] = biological target: kinases of Table 5 (Homo sapiens, UniProt P06239); conditions: kinase LCK (Part I, plate A6, Domain 0)
From the text: as §1

[6] = biological target: T2, kinases of Table 5 (Homo sapiens, UniProt Q9UQB9); conditions: kinase STK13 (Part I, plate G11, Domain 1); inhibitor 100 uM
T2 sequence (Q9UQB9 1-309): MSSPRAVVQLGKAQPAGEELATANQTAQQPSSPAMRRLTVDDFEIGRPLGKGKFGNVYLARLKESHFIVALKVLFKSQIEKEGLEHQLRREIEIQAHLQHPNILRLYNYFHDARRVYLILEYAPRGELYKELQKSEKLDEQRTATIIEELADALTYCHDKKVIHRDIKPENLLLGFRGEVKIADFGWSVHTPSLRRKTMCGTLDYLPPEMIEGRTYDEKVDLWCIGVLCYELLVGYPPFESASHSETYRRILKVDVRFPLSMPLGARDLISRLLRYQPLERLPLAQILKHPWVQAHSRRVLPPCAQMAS
From the text: as §1

[7] = biological target: kinases of Table 5 (Homo sapiens, UniProt P09769); conditions: for Inhibition level: kinase FGR; for Inhibition Results (Level): kinase FGR (Part II, plate B10, Domain 0)
From the text: as §1

[8] = biological target: T3, kinases of Table 5 (Homo sapiens, UniProt Q08881); conditions: kinase ITK (Part I, plate E4, Domain 0); inhibitor 100 uM
T3 sequence (Q08881 1-620): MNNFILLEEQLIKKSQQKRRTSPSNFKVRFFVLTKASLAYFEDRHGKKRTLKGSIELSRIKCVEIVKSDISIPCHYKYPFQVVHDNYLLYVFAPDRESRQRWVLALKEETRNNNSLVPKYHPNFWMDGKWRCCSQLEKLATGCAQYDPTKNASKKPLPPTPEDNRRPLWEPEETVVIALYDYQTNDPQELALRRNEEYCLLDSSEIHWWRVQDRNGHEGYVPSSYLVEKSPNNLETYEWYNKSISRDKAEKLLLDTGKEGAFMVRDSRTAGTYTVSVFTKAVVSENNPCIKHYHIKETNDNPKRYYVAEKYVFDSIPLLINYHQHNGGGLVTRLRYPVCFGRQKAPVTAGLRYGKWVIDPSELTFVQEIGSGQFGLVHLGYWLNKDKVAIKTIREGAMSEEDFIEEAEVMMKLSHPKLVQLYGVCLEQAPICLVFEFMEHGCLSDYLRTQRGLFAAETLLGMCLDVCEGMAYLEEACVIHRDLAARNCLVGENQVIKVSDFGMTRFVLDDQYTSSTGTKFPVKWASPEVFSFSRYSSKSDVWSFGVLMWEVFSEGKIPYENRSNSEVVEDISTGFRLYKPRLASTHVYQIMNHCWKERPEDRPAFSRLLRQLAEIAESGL
From the text: as §1

[9] = biological target: kinases of Table 5 (Homo sapiens, UniProt Q86UE8); conditions: kinase TLK2 (Part I, plate C8, Domain 1)
From the text: as §1

Chain of kinases of Table 5 (Homo sapiens, UniProt P09769) (P09769 whole entry): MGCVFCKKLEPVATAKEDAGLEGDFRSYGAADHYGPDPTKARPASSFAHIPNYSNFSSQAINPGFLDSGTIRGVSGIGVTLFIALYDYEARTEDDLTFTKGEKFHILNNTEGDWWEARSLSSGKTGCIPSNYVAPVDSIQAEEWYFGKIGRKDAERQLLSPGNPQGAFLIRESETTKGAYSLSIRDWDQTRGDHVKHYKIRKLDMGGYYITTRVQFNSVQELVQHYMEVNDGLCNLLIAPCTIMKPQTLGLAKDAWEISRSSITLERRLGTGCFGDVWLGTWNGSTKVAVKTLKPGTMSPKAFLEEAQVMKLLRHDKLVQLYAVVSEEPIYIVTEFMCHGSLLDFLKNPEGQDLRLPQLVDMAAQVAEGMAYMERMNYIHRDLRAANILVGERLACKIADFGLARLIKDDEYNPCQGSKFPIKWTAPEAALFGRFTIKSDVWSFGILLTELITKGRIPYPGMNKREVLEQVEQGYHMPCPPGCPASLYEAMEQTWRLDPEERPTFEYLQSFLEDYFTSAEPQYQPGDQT
Chain of kinases of Table 5 (Homo sapiens, UniProt P11362) (P11362 22-822): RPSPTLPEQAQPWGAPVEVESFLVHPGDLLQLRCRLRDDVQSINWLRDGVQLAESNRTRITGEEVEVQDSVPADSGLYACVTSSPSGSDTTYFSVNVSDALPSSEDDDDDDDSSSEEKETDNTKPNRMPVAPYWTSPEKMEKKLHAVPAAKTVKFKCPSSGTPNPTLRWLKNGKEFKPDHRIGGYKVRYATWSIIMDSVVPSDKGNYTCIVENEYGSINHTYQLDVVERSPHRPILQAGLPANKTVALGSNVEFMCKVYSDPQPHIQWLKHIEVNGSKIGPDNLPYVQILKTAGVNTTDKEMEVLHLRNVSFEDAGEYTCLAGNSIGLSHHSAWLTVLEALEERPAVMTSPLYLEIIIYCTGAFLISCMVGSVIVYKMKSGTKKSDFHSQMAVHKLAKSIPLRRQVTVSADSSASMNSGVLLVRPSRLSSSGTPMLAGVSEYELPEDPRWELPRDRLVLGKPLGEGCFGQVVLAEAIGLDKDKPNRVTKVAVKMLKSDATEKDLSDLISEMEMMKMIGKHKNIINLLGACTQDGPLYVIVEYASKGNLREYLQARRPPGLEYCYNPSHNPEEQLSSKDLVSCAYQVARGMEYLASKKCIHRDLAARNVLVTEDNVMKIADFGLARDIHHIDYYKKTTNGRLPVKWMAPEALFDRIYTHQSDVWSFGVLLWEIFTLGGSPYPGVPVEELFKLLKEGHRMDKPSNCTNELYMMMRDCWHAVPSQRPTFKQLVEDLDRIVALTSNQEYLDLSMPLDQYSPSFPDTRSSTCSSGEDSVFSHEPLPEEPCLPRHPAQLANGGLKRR
Chain of kinases of Table 5 (Homo sapiens, UniProt Q9Y6R4) (Q9Y6R4 whole entry): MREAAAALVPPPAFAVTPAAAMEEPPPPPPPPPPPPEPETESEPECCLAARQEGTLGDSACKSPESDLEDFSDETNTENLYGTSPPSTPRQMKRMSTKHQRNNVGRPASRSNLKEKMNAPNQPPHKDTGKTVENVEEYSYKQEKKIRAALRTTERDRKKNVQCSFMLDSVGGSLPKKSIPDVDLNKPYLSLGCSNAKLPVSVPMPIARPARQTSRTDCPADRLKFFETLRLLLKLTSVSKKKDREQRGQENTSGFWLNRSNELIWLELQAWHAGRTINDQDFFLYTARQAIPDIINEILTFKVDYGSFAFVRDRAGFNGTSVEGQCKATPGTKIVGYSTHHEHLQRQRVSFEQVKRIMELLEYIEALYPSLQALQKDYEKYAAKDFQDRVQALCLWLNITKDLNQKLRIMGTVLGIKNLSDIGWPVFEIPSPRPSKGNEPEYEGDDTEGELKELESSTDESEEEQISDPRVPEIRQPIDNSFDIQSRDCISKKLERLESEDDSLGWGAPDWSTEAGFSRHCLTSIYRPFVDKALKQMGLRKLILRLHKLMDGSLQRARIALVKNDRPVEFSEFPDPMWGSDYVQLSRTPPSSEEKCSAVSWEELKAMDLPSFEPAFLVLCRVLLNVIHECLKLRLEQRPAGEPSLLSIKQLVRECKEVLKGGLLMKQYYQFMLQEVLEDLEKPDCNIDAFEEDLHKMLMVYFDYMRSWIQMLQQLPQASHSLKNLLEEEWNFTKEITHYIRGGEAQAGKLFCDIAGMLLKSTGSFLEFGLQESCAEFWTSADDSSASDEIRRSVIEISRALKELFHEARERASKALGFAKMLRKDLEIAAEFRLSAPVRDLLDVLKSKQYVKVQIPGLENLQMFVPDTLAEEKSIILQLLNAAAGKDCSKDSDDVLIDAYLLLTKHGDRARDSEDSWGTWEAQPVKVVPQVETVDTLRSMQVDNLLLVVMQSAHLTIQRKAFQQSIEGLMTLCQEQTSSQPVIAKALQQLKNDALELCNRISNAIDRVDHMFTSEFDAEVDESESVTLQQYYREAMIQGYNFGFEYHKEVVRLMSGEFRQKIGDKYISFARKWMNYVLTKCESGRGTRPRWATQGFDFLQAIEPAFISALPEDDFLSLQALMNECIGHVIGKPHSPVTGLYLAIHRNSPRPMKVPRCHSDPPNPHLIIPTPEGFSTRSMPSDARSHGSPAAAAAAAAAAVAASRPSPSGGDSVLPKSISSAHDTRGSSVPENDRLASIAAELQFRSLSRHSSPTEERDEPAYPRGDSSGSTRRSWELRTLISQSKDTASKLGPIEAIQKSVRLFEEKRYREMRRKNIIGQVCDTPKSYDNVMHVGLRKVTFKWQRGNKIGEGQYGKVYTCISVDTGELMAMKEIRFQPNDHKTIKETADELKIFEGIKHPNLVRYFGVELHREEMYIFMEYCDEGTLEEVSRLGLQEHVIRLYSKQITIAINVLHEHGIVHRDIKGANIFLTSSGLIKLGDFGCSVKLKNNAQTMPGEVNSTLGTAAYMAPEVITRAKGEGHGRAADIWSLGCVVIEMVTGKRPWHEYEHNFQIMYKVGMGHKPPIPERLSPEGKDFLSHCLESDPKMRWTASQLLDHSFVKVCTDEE
Chain of kinases of Table 5 (Homo sapiens, UniProt P00519) (P00519 whole entry): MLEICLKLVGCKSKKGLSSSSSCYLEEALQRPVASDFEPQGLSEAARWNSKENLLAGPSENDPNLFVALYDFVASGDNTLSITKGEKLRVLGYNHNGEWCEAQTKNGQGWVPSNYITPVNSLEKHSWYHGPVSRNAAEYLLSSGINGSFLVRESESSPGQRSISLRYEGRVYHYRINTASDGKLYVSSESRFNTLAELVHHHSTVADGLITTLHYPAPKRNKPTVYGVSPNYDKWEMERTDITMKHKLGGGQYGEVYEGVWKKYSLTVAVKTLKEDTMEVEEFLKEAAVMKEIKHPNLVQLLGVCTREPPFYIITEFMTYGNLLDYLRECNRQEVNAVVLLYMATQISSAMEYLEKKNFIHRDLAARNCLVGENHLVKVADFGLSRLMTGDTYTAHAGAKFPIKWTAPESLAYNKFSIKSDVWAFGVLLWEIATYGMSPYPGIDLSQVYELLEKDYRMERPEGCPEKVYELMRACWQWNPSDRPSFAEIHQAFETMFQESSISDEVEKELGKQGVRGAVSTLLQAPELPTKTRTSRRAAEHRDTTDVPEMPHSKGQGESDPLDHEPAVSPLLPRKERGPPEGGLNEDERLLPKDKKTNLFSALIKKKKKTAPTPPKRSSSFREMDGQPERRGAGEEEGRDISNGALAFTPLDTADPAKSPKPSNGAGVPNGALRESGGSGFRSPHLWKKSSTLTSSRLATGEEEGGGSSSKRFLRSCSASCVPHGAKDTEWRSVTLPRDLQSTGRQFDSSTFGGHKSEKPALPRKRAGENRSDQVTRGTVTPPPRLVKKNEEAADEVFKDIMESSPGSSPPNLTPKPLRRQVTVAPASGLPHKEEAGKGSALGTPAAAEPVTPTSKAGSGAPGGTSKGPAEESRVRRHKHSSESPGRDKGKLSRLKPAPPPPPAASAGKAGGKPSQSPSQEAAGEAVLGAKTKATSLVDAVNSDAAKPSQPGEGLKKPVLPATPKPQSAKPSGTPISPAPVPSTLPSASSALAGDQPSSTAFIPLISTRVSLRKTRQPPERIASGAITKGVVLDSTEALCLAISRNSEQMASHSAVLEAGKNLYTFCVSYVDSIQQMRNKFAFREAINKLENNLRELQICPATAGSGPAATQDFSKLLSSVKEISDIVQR
Chain of kinases of Table 5 (Homo sapiens, UniProt P06239) (P06239 whole entry): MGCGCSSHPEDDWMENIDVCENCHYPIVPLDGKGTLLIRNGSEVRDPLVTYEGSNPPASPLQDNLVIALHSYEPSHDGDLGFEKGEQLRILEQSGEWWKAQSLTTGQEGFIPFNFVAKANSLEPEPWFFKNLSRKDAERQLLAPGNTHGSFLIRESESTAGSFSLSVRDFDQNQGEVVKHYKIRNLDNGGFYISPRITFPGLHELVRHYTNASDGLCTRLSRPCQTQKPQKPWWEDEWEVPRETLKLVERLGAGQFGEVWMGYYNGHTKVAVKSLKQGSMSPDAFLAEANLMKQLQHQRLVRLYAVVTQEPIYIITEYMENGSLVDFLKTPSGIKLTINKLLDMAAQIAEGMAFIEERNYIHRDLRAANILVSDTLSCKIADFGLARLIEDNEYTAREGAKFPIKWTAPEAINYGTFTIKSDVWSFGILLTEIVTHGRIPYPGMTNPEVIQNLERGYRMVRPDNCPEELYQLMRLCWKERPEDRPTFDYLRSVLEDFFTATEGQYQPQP

Row | Structure (SMILES) | Inhibition level [1] | Inhibition level ([2]; inhibitor 100 uM) | Inhibition Results (Level) [3] | Inhibition Results (Level) [4] | Inhibition Results (Level) ([5]; inhibitor 100 uM) | Inhibition Results (Level) [6] | Inhibition level ([7]; inhibitor 100 uM) | Inhibition Results (Level) [8] | Inhibition Results (Level) ([9]; inhibitor 100 uM) | Inhibition level ([2]; concentration not given) | Inhibition Results (Level) ([5]; inhibitor <3.7 mM) | Inhibition level ([7]; concentration not given) | Inhibition Results (Level) ([9]; inhibitor <3.7 mM) | Inhibition Results (Level) ([5]; inhibitor 90 uM) | Inhibition Results (Level) ([9]; inhibitor 90 uM) | Inhibition Results (Level) [1] | Inhibition Results (Level) ([2]; inhibitor 100 uM) | Inhibition Results (Level) ([7]; inhibitor 100 uM) | Inhibition Results (Level) ([9]; inhibitor 21.5 uM)
1 | N#C/C(=C/c1ccc(O)c(O)c1)C(=O)NCc1ccccc1 [AG 490] | 0 | 0 | 0 | 2 | 2 | 2 | 2 | 1 | 2 |  |  |  |  |  |  |  |  |  | 
2 | O=c1c(O)c(-c2ccc(O)c(O)c2)oc2cc(O)cc(O)c12 [Quercetin] |  |  | 0 | 0 |  | 2 |  | 0 | 0 |  |  |  |  |  |  |  |  | 2 | 
3 | CC(=O)c1c(O)c(C)c(O)c(Cc2c(O)c3c(c(C(=O)/C=C/c4ccccc4)c2O)OC(C)(C)C=C3)c1O [Rottlerin (Mallotoxin)] |  |  | 2 | 1 | 2 | 1 |  | 1 | 2 |  |  |  |  |  |  | 1 | 0 | 2 | 
4 | CN[C@@H]1C[C@H]2O[C@@](C)([C@@H]1OC)n1c3ccccc3c3c4c(c5c6ccccc6n2c5c31)C(=O)NC4 [Staurosporine] |  |  |  |  |  |  |  |  |  |  |  | 2 |  |  |  |  |  |  | 2

More lines, main results first:

Row | Inhibition level [1] | Inhibition level ([2]; inhibitor 100 uM) | Inhibition Results (Level) [3] | Inhibition Results (Level) [4] | Inhibition Results (Level) ([5]; inhibitor 100 uM) | Inhibition Results (Level) [6] | Inhibition level ([7]; inhibitor 100 uM) | Inhibition Results (Level) [8] | Inhibition Results (Level) ([9]; inhibitor 100 uM) | Inhibition level ([2]; concentration not given) | Inhibition Results (Level) ([5]; inhibitor <3.7 mM) | Inhibition level ([7]; concentration not given) | Inhibition Results (Level) ([9]; inhibitor <3.7 mM) | Inhibition Results (Level) ([5]; inhibitor 90 uM) | Inhibition Results (Level) ([9]; inhibitor 90 uM) | Structure (SMILES) | Inhibition Results (Level) [1] | Inhibition Results (Level) ([2]; inhibitor 100 uM) | Inhibition Results (Level) ([7]; inhibitor 100 uM) | Inhibition Results (Level) ([9]; inhibitor 21.5 uM)
5 | 1 | 1 | 2 | 1 | 2 | 1 | 2 | 1 | 2 |  |  |  |  |  |  | COc1cc2ncnc(Nc3cccc(Cl)c3)c2cc1OC [AG 1478] |  |  |  | 
6 | 0 | 0 | 2 | 1 | 2 | 2 | 2 | 2 | 2 | 0 | 0 | 2 | 0 |  |  | O=c1c(-c2ccc(O)cc2)coc2cc(O)cc(O)c12 [Genistein] |  |  |  | 
7 |  |  | 0 | 1 | 2 | 1 |  | 1 | 2 |  |  |  |  |  |  | O=S(=O)(NCCNC/C=C/c1ccc(Br)cc1)c1cccc2cnccc12 [H-89] | 1 | 0 | 2 | 
8 | 2 |  | 2 | 2 |  | 2 | 2 | 2 | 2 |  |  |  |  |  |  | CC(C)(C)n1nc(-c2ccc(Cl)cc2)c2c(N)ncnc21 [PP2] |  |  |  | 
9 | 2 | 2 | 2 | 2 | 2 | 2 | 2 | 2 | 1 | 0 |  | 2 |  | 0 | 2 | Cn1cc(C2=C(c3cn(CCCSC(=N)N)c4ccccc34)C(=O)NC2=O)c2ccccc21 [Ro-31-8220] |  |  |  | 
